{
  "source": "patent EP2067861A1",
  "about": "“Animals of the rattus genus wherein msh6 expression is functionally decreased and methods for the generation of specific mutants therefrom” (Koninklijke Nederlandse Akademie van Wetenschappen, priority 2007, dated 2009)",
  "key": {"[1]": {"tested_on": "msh6^-/- males", "experiment": "ENU dose-response experiment: fertility of treated founder males", "format": "in vivo, rat", "description": "All experiments were approved by the Animal Care Committee of the Royal Dutch Academy of Science according to the Dutch legal ethical guidelines. Experiments were designed to minimize the number of required animals and their suffering. Male MSH6 knockout rats (Msh6^1Hubr) of 12 weeks of age were given three weekly intraperitoneal injections of 25, 30 and 35 mg/kg bodyweight ENU. Preparation of ENU (Isopac; Sigma) was done as decribed (for detailed description, see (Smits et al. (2006) Pharmacogenet Genomics 16, 159-69) After the treatment the injected males were monitored for fertility by breeding with one or two females. Pups from these early matings were counted, but not analyzed. Ten weeks after the last injection, fertile males of the highest-dosed fertile group were kept on a weekly breeding scheme with two females to produce F1 progeny for mutational analysis. Animals were housed under standard conditions in groups of two to three per cage per gender under controlled experimental conditions (12-h light/dark cycle, 21±1°C, 60% relative humidity, food and water ad libitum).\nThe efficiency of ENU is dependent of the dose, reflected by a higher mutagenicity after three weekly administrations of low doses of the mutagen compared to a single high-dose injection (Justice et al. (2000) Mamm Genome 11, 484-8). Furthermore it has been shown that higher ENU concentrations increase the mutation frequency (Smits et al. ([…]) Pharmacogenet Genomics 16, 159-69; Smits and Cuppen (2006) Trends Genet. 22, 232-40). To determine the optimal ENU concentration we performed an ENU dose-response experiment and determined the fertility of the founders. At 12 weeks of age msh6^-/- males were treated with 3 weekly doses of different concentrations of the mutagen. Fertility was determined after a full cycle of spermatogenesis (± 10 weeks) by breeding and/or histological analysis of the testes. At concentrations of 35, 30 and 25 mg/kg, respectively 1/8, 5/8 and 4/6 males were fertile (Table 5). Compared to earlier studies, where at 40 and 35 mg/kg ENU respectively 6/10 and 10/10 rats are fertile (Smits and Cuppen (2006) Trends Genet. 22, 232-40), this is a considerable decrease. It is known that MSH6 deficiency reduces lifespan in both rats (van Boxtel et al. (2007) submitted) and mice (Edelmann (1997) Cell 91, 467-77) as a result of tumor development. MSH6 deficiency increased ENU sensitivity not only in fertility, but also in survival. Whereas untreated msh6^-/- rats show a median survival of 14 months, this is reduced in the ENU treated males to an average mean of 37 ± 3 weeks (∼ 8 months) and no male was alive after 50 weeks of age (Figure 5). This decrease in lifespan was due to the development of tumors, mainly lymphomas (data not shown). […]"}, "[2]": {"tested_on": "Control", "details": "Control 3 x 40 mg/kg ENU, cited from earlier work"}, "[3]": {"details": "362 pups, 37,27 x 10^6 bases screened"}},
  "note": "Values joined by “and” are separate entries in the source; they are usually repeats but may differ in a detail not shown here. Equal entries are not always repeated.",
  "data": [
    {"smiles": "CCN(N=O)C(N)=O", "note": "[ENU, N-ethyl-N-nitrosourea]", "values": [
      {"measurement": "# Fertile males", "setting": "[1]; MSH6^-/- 3 x 25 mg of ENU per kg bodyweight (three weekly injections), 6 males injected, testes histology and/or at least one litter 10 weeks after last injection", "result": "4/6 and 4"},
      {"measurement": "# Fertile males", "setting": "[1]; MSH6^-/- 3 x 30 mg of ENU per kg bodyweight (three weekly injections), 8 males injected", "result": "5/8 and 5"},
      {"measurement": "# Fertile males", "setting": "[1]; MSH6^-/- 3 x 35 mg of ENU per kg bodyweight (three weekly injections), 8 males injected", "result": "1/8 and 1"},
      {"measurement": "# Fertile males", "setting": "[1]; MSH6^-/- Total of the three dose groups, 24 males injected as printed", "result": 10},
      {"measurement": "# Mutations - nonsense", "setting": "[2]; [3]", "result": 0},
      {"measurement": "# Mutations - total", "setting": "[2]; [3]", "result": 30},
      {"measurement": "# Mutations - missense", "setting": "[2]", "result": 17},
      {"measurement": "# Mutations - non-coding", "setting": "[2]", "result": 6},
      {"measurement": "# Mutations - silent", "setting": "[2]", "result": 7},
      {"measurement": "Mutation Frequencies", "setting": "[2]; highest ENU-induced mutation frequency in rats", "result": "8.05 x 10^-7"}
    ]}
  ]
}
